# Test results from US20180339016A1 (priority 2015, published 2018).
# Read-outs that look alike come from different tables or passages of the source.
# Tests used:
# [1] = test system: E. coli ATCC 25922; test: Antibiotic interaction assay (Wimley), 2/3 broth microdilution: MIC alone, MIC of combination, FICI; assay type: cell-based; settings: for MIC of combination (μM): antibiotic: concentration of labelled drug in combination with KL-L9P; for FICI of drug with KL-L9P / FICIKL-L9P / FICIantibiotic: labelled drug + KL-L9P; for FICI of drug with colistin: labelled drug + colistin; for MIC of drug with 1 μM KL-L9P / dilution of MIC relative to drug alone: with 1 μM of KL-L9P; for MIC of combination (μM): antibiotic (colistin): colistin concentration in combination with labelled peptide; for MIC of peptide: peptide alone
# Protocol: Synergy was evaluated by an antibiotic interaction assay (Wimley, 2015) Using the method of Wimley (BBA, 2015, v. 1848(1), pp. 8-15), synergy between the membrane-activating peptide and an antibiotic was measured by an FICI value (FIG. 17). […] Thus, to accurately examine synergy, a ⅔ dilution method which observes MIC at denser concentration intervals is advantageous over a ½ dilution method in statistical terms. […] In the same manner, the MIC of an antibiotic or repositioning drug (second line) is measured. In the third line, the two compounds are mixed after putting half amount each, and the MIC thereof is measured.
# A broth microdilution technique (⅔ dilution) was used together with an MH broth. E. coli treated with an antibiotic and the peptide was incubated in a 37° C. incubator for 18 hours.
# (§1) To measure the synergy between the membrane-activating peptides and the repositioning drug, a 10× compound was prepared, and then serially diluted ⅔-fold with distilled water. An MH broth (900 μl) was added to and mixed with the 10× compound (100 μl), and then 200 μL of the mixture was taken and added to a 96-well plate. E. coli cultured for one day was adjusted to 0.5 MCF using MCFarland, and diluted 10-fold, and then 10 μl of the dilution was added to each well of the plate (5×10^5 CFU/mL). After addition of the bacterial cells, plate was incubated at 37° C. for 18 hours, and then the OD value at UV-Vis (600 nm) was measured. Cell viability (%)=(OD600 of sample−OD600 of negative control)/(OD600 of positive control−OD600 of negative control)×100.
# [2] = test system: Escherichia coli (ATCC 25922); settings: peptide alone; peptide concentration required to inhibit growth by 20% (so in the source)
# Protocol: The N-terminus of the peptides were acetylated and the C-terminus was amidated. The kinked structure can rapidly reduce the alpha-helical content, thereby greatly reducing the toxicity of the peptide against host cells. In addition, because of the potential to show specificity for the Gram-negative bacterial membrane, Pro-mutants were prepared by site-directed mutagenesis. Using the prepared peptides, their MIC for the Gram-negative bacterium E. coli and the Gram-positive bacterium S. aureus and their hemolytic activity for host cells were examined (Table 1).
# as §1
# [3] = Escherichia coli, ATCC25922, 18 h, Tables 19-23, read-out: MIC (μM) against E. coli ATCC, 1 compound alone
# [4] = Escherichia coli, ATCC25922, 18 h, drug alone, <20% growth of positive control, read-out: MIC of antibiotic
# [5] = labelled peptide + colistin + linezolid
# [6] = peptide concentration in combination with colistin
# [7] = three compounds: labelled peptide + colistin + linezolid
compound,measurement,setting,value
CC(C)Cc1ccc([C@H](C)C(=O)O)cc1 [(S)-ibuprofen],MIC,[1]; [3],12000 µM
same,MIC,[1]; [4],12000 µM
same,"MIC (μM) against E. coli ATCC, combination of two compounds","[1]; KL-L9P + (S)-ibuprofen, concentration of labelled component",420 µM
same,"MIC (μM) against E. coli ATCC, combination of 3 compounds","[1]; KL-L9P + colistin + (S)-ibuprofen, concentration of labelled component",98 µM
same,"MIC (μM) against E. coli ATCC, combination of two compounds","[1]; colistin + (S)-ibuprofen, concentration of labelled component",830 µM
same,MIC of combination (μM): antibiotic,[1],416.67 µM
same,FICI of drug with KL-L9P,[1],0.23
same,FICIKL-L9P,[1],0.20
same,FICIantibiotic,[1],0.03
KLLKLAKKPLKLLK [KL-L6AL9P],MIC [μM] Against E. coli,[2],89 µM
CC(=O)Nc1ccc(O)cc1 [acetaminophen],synergy with KL-L9P,[1],not synergistic
CCC(C)(C)C(=O)O[C@H]1C[C@@H](C)C=C2C=C[C@H](C)[C@H](CC[C@@H]3C[C@@H](O)CC(=O)O3)[C@H]21 [simvastatin],MIC,[1]; [3],> 500 µM
same,MIC,[1]; [4],> 500 µM
same,MIC,"[1]; Escherichia coli, ATCC25922, simvastatin alone, read-out: MIC of simvastatin",750 µM
same,"MIC (μM) against E. coli ATCC, combination of 3 compounds","[1]; KL-L9P + colistin + simvastatin, concentration of labelled component",33 µM
same,"MIC (μM) against E. coli ATCC, combination of two compounds","[1]; KL-L9P + simvastatin, concentration of labelled component",53 µM
same,"MIC (μM) against E. coli ATCC, combination of two compounds","[1]; colistin + simvastatin, concentration of labelled component",71 µM
same,MIC of combination (μM): antibiotic,[1],52.47 µM
same,FICI of drug with KL-L9P,[1],0.18
same,FICIKL-L9P,[1],0.11
same,FICIantibiotic,[1],0.07
CC(=O)Oc1ccccc1C(=O)O [aspirin],synergy with KL-L9P,[1],not synergistic
same,MIC,[1]; [4],519 µM
same,MIC of combination (μM): antibiotic,[1],479.17 µM
same,FICI of drug with KL-L9P,[1],1.59
same,FICIKL-L9P,[1],0.66
same,FICIantibiotic,[1],0.92
CC(=O)NC[C@H]1CN(c2ccc(N3CCOCC3)c(F)c2)C(=O)O1 [linezolid],lowering of MIC in combination KL-L9P/colistin/linezolid versus alone,[1],10 fold
same,MIC,[1]; [3],70 µM
same,MIC,[1]; [4],71.1 µM
same,MIC,"[1]; Escherichia coli, ATCC25922, Example 7, read-out: MIC when the three compounds were used alone",60 µM
same,MIC,"[1]; Escherichia coli, ATCC25922, linezolid alone, read-out: MIC of Linezolid",83 µM
same,"MIC (μM) against E. coli ATCC, combination of 3 compounds","[1]; KL-L9P + colistin + linezolid, concentration of labelled component",6.7 µM
same,"MIC (μM) against E. coli ATCC, combination of two compounds","[1]; KL-L9P + linezolid, concentration of labelled component",16 µM
same,"MIC (μM) against E. coli ATCC, combination of two compounds","[1]; colistin + linezolid, concentration of labelled component",36 µM
same,concentration killing E. coli in combination KL-L9P/colistin/linezolid,[1]; concentration of labelled component,6 µM
same,MIC of combination (μM): antibiotic,[1],15.80 µM
same,FICIKL-L9P,[1],0.18
same,FICIantibiotic,[1],0.22
same,FICI of drug with colistin,[1],about 1
same,MIC,"[1]; linezolid alone, read-out: MIC of Linezolid",59 µM
same,MIC of drug with 1 μM KL-L9P,[1],10 µM
same,dilution of MIC relative to drug alone,[1],about 16 fold
Mtx- KLLKLLKKPLKLLK [Mtx-KL-L9P],MIC [μM] Against E. coli,[2],5.0 µM
KLLKLLKKSLKLLK [KL L9S],MIC [μM] Against E. coli,[2],1.25 µM
O=c1c(O)c(-c2ccc(O)c(O)c2)oc2cc(O)cc(O)c12 [quercetin],MIC,[1]; [4],7500 µM
same,MIC of combination (μM): antibiotic,[1],108.39 µM
same,FICI of drug with KL-L9P,[1],0.35
same,FICIKL-L9P,[1],0.33
same,FICIantibiotic,[1],0.01
"KLLKLLCKLCKLLK [7, 10 kink]",MIC [μM] Against E. coli,[2],1.1 µM
same,MIC of combination (μM): antibiotic (colistin),[1],0.081 µM
same,FICI of peptide with colistin,[1]; labelled peptide + colistin,0.89
same,FICIPeptide,[1]; labelled peptide + colistin,0.58
same,FICIcolistin / FICIantibiotic,[1]; labelled peptide + colistin,0.31
same,FICI of peptide with colistin and linezolid,[1]; [5],1.1
same,FICIPeptide,[1]; [5],0.37
same,FICIcolistin,[1]; [5],0.33
same,FICIlinezolid,[1]; [5],0.37
same,MIC of peptide,[1],1.1 µM
same,MIC of combination (μM): peptide,[1]; [6],0.63 µM
same,MIC of combination (μM): colistin,[1]; [7],0.081 µM
same,MIC of combination (μM): linezolid,[1]; [7],22 µM
same,MIC of combination (μM): peptide,[1]; [7],0.44 µM
Oc1ccc(C=Cc2cc(O)cc(O)c2)cc1 [resveratrol],MIC,[1]; [4],1770 µM
same,MIC of combination (μM): antibiotic,[1],246.91 µM
same,FICI of drug with KL-L9P,[1],0.25
same,FICIKL-L9P,[1],0.11
same,FICIantibiotic,[1],0.14
O=C(O)c1cn(C2CC2)c2cc(N3CCNCC3)c(F)cc2c1=O [ciprofloxacin],synergy with KL-L9P,[1],not synergistic
KLLKLLKKQLKLLK [KL L9Q],MIC [μM] Against E. coli,[2],1.25 µM
COc1cc(/C=C/C(=O)CC(=O)/C=C/c2ccc(O)c(OC)c2)ccc1O [curcumin],MIC,[1]; [3],300 µM
same,MIC,[1]; [4],396 µM
same,"MIC (μM) against E. coli ATCC, combination of 3 compounds","[1]; KL-L9P + colistin + curcumin, concentration of labelled component",20 µM
same,"MIC (μM) against E. coli ATCC, combination of two compounds","[1]; KL-L9P + curcumin, concentration of labelled component",79 µM
same,"MIC (μM) against E. coli ATCC, combination of two compounds","[1]; colistin + curcumin, concentration of labelled component",83 µM
same,MIC of combination (μM): antibiotic,[1],78.70 µM
same,FICI of drug with KL-L9P,[1],0.30
same,FICIKL-L9P,[1],0.10
same,FICIantibiotic,[1],0.20
same,MIC of drug with 1 μM KL-L9P,[1],4 µM
same,dilution of MIC relative to drug alone,[1],about 330 fold
Cc1onc(-c2ccccc2Cl)c1C(=O)N[C@@H]1C(=O)N2[C@@H]1SC(C)(C)[C@@H]2C(=O)O [cloxacillin],MIC,[1]; [3],70 µM
same,MIC,[1]; [4],74.1 µM
same,"MIC (μM) against E. coli ATCC, combination of two compounds","[1]; KL-L9P + cloxacillin, concentration of labelled component",18 µM
same,"MIC (μM) against E. coli ATCC, combination of 3 compounds","[1]; KL-L9P + colistin + cloxacillin, concentration of labelled component",9.4 µM
same,"MIC (μM) against E. coli ATCC, combination of two compounds","[1]; colistin + cloxacillin, concentration of labelled component",38 µM
same,MIC of combination (μM): antibiotic,[1],17.78 µM
same,FICIKL-L9P,[1],0.25
same,FICIantibiotic,[1],0.24
same,FICI of drug with colistin,[1],about 1
same,MIC of drug with 1 μM KL-L9P,[1],0.3 µM
same,dilution of MIC relative to drug alone,[1],128 fold
KLLKLLKKELKLLK [KL L9E],MIC [μM] Against E. coli,[2],5 µM
KLLKLLKKGLKLLK [KL L9G],MIC [μM] Against E. coli,[2],1.25 µM
COc1ccc2cc3[n+](cc2c1OC)CCc1cc2c(cc1-3)OCO2 [berberine],synergy with KL-L9P,[1],not synergistic
same,MIC,[1]; [4],298 µM
same,MIC of combination (μM): antibiotic,[1],273.15 µM
same,FICIKL-L9P,[1],0.53
same,FICIantibiotic,[1],0.92
CN(C)[C@@H]1C(=O)C(C(N)=O)=C(O)[C@@]2(O)C(=O)C3=C(O)c4c(O)cccc4[C@@](C)(O)[C@H]3C[C@@H]12 [tetracyclin],synergy with KL-L9P,[1],not synergistic
Mtx- KLLKLPKKLLKLLK [Mtx-KL-L6P],MIC [μM] Against E. coli,[2],5.0 µM
CC(C)Cc1ccc(C(C)C(=O)O)cc1 (centres unmarked) [ibuprofen],MIC of drug with 1 μM KL-L9P,[1],3 µM
same,dilution of MIC relative to drug alone,[1],about 3000 fold
CC[C@H](C)C(=O)O[C@H]1C[C@@H](C)C=C2C=C[C@H](C)[C@H](CC[C@@H]3C[C@@H](O)CC(=O)O3)[C@H]21 [lovastatin],MIC,[1]; [4],> 500 µM
same,MIC of combination (μM): antibiotic,[1],74.07 µM
same,FICI of drug with KL-L9P,[1],0.24
same,FICIKL-L9P,[1],0.14
same,FICIantibiotic,[1],0.10
KLAKLAKKPLKLAK [KLA-L9P],MIC [μM] Against E. coli,[2],> 200 µM
N[C@@H]1CONC1=O [D-cycloserine],synergy with KL-L9P,[1],not synergistic
Mtx- LKKLLKLPKKLLKL [Mtx-LK-L8P],MIC [μM] Against E. coli,[2],5.0 µM
"KLR8KLLKKPLS5LLK [st 3, 11]",MIC [μM] Against E. coli,[2],2.5 µM
same,MIC of combination (μM): antibiotic (colistin),[1],0.12 µM
same,FICI of peptide with colistin,[1]; labelled peptide + colistin,0.86
same,FICIPeptide,[1]; labelled peptide + colistin,0.59
same,FICIcolistin / FICIantibiotic,[1]; labelled peptide + colistin,0.27
same,FICI of peptide with colistin and linezolid,[1]; [5],0.70
same,FICIPeptide,[1]; [5],0.11
same,FICIcolistin,[1]; [5],0.25
same,FICIlinezolid,[1]; [5],0.33
same,MIC of peptide,[1],2.5 µM
same,MIC of combination (μM): peptide,[1]; [6],0.61 µM
same,MIC of combination (μM): colistin,[1]; [7],0.060 µM
same,MIC of combination (μM): linezolid,[1]; [7],15 µM
same,MIC of combination (μM): peptide,[1]; [7],0.30 µM
CC(C)Cc1ccc([C@@H](C)C(=O)O)cc1 [(R)-ibuprofen],MIC,[1]; [4],12000 µM
same,MIC of combination (μM): antibiotic,[1],555.56 µM
same,FICI of drug with KL-L9P,[1],0.27
same,FICIKL-L9P,[1],0.23
same,FICIantibiotic,[1],0.05
CC(C)c1c(C(=O)Nc2ccccc2)c(-c2ccccc2)c(-c2ccc(F)cc2)n1CC[C@@H](O)C[C@@H](O)CC(=O)O [atorvastatin],MIC,[1]; [4],> 500 µM
same,MIC of combination (μM): antibiotic,[1],166.67 µM
same,FICI of drug with KL-L9P,[1],0.60
same,FICIKL-L9P,[1],0.38
same,FICIantibiotic,[1],0.22
KLLKLLKKNLKLLK [KL L9N],MIC [μM] Against E. coli,[2],2.5 µM
